According to patent publication US20080287653A1, “METHOD FOR PRODUCING INHIBITORS AND INHIBITORS FORMED THEREFROM” (THE UNIVERSITY OF AKRON, priority 2007, published 2008):
Non-standard residues stand in square brackets, D forms with d. Residues, ends and D or L forms follow the SMILES beside them. Lys(Thioacetyl) = CC(=S)NCCCC[C@H](N)C(=O)O

Columns and labels:
SIRT1 = biological target: T1, SIRT1 (Homo sapiens, UniProt Q96EB6); assay: HPLC-based SIRT1 inhibition assay with purified GST-SIRT1; type: biochemical
T1 construct: made in house
T1 sequence (Q96EB6 1-747): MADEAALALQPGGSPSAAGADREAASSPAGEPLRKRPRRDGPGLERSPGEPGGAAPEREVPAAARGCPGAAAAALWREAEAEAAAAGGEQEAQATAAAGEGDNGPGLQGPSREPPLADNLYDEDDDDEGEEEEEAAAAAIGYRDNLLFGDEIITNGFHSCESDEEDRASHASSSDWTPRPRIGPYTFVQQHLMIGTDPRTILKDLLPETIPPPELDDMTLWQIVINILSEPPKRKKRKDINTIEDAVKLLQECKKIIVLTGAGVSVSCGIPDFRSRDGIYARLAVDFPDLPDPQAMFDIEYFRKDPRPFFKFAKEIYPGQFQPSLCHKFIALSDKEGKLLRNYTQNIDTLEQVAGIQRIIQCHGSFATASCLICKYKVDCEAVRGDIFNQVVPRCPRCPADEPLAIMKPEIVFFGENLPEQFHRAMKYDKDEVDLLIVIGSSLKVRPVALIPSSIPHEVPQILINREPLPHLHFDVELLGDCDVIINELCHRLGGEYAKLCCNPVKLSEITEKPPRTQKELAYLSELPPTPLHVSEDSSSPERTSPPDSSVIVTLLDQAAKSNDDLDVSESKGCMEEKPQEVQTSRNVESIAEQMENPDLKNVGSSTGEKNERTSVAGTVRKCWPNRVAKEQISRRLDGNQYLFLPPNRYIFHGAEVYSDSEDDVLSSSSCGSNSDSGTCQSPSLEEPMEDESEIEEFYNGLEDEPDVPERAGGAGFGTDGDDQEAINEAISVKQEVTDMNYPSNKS
Experimental: Inhibition assays with purified SIRT1, SIRT2, and SIRT3. GST-SIRT1 that could be produced in a laboratory was used for the SIRT1 inhibition assay. SIRT2 and SIRT3 are obtainable from commercial sources known to those skilled in the art. Consistent HPLC-based assay procedures were used for the inhibition assays with SIRT1, SIRT2, and SIRT3. […] An enzymatic reaction was initiated by the addition of an enzyme at 37° C. and was allowed to be incubated at 37° C.: 10 minutes as follows: for SIRT1 assay, or 60 minutes for SIRT2 and SIRT3 assays. Incubation was quenched at the indicated time with the following stop solution: 100 mM HCl and 0.16 M acetic acid. […] All peptide stock solutions were prepared in ddH2O. IC50 values were estimated from Dixon plots (1/v0 vs. [inhibitor]) as an indication of the inhibition potency.

HDAC8 = biological target: T2, HDAC8 (Homo sapiens, UniProt Q9BY41); assay: HPLC-based assay with purified HDAC8 (de(thio)acetylation of peptides); type: biochemical; parameters: key to HDAC8 (sensitive / resistant to HDAC8): +: Sensitive to HDAC8; —: Resistant to HDAC8; conditions: for formation of de(thio)acetylated peptide product by HDAC8: 0.3 mM peptide, 1.5 μM HDAC8, 2 hours at room temperature; for HDAC8 (sensitive / resistant to HDAC8): enzymatic dethioacetylation by HDAC8
T2 construct: purchased
T2 sequence (Q9BY41 1-377): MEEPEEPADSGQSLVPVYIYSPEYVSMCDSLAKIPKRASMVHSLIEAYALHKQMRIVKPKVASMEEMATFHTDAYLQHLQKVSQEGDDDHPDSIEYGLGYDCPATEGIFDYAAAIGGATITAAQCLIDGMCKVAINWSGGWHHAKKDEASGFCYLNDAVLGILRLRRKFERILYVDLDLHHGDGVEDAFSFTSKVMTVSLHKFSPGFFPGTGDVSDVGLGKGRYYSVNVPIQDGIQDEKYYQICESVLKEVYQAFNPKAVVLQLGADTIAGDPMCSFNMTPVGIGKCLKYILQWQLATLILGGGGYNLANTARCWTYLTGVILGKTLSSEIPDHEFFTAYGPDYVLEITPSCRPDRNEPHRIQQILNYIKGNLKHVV
Experimental: To test the foregoing premise, peptides 1b, 2, and 3a were allowed to be incubated for 2 hours at room temperature in the HDAC8 assay buffer in a HPLC-based HDAC8 assay. […] FIG. 5 provides representative HPLC chromatograms from HDAC8 assays with peptides 1b, 2, and 3a. All assays were performed in duplicate and essentially the same HPLC chromatograms were obtained for the duplicates. The small peak with tR˜27 minutes in the second chromatogram was from a minor impurity in the purified peptide 2 sample, rather than the dethioacetylated product. The lack of detectable dethioacetylation of peptide 3a was apparent from the absence of a peak with tR˜34 minutes, shown for peptide 3c in the third chromatogram.
Assay with purified HDAC8. The purified HDAC8 could be obtained from a commercial source for use with a HPLC-based HDAC8 assay. In brief, a HDAC8 assay solution had the following components: 25 mM Tris.HCl (pH 8.0), 137 mM NaCl, 2.7 mM KCl, 1 mM MgCl2, 1 mg/mL BSA (SIGMA Cat. #A3803 with reduced fatty acid content), 0.3 mM peptide 1b, 2, or 3a, and 1.5 μM HDAC8. […] An enzymatic reaction was initiated by the addition of HDAC8 at room temperature and was allowed to be incubated at room temperature for 2 hours before being quenched with the following stop solution: 1.0 M HCl and 0.16 M acetic acid. The quenched assay solutions were directly injected into a reversed-phase HPLC C18 column (100 Å, 0.46×25 cm), eluting with the following gradients of ddH2O containing 0.05% (v/v) trifluoroacetic acid (mobile phase A) and acetonitrile containing 0.05% (v/v) trifluoroacetic acid (mobile phase B): linear increase from 0% B to 35% B (for the assay with peptide 2 or 1b) or 40% B (for the assay with peptide 3a or […]) from 0-40 minutes (1 mL/min), and UV monitoring at 214 nm. […] The enzymatically formed peptide 1c was confirmed by its comigration with the chemically synthesized authentic sample and by MALDI-TOF mass spectrometric analysis, and was quantified by HPLC peak integration and comparison with that of synthetic authentic sample.

Row | Compound | stronger inhibition with respect to SIRT1 than SIRT2 and SIRT3 (SIRT1; SIRT1 vs SIRT2 and SIRT3) | formation of de(thio)acetylated peptide product by HDAC8 (HDAC8) | HDAC8 (sensitive / resistant to HDAC8) (HDAC8) | inhibition weaker for SIRT1 as compared to SIRT2 (SIRT1; SIRT1 vs SIRT2)
1 | CC[C@H](C)[C@H](NC(=O)[C@@H](NC(=O)[C@H](CCCCN)NC(=O)[C@H](CCCNC(=N)N)NC(=O)[C@H](CC(C)C)NC(=O)[C@H](CC(C)C)NC(=O)[C@H](CCCNC(=N)N)NC(=O)[C@H](CCCNC(=N)N)NC(=O)[C@H](CCSC)NC(=O)[C@@H](NC(=O)[C@H](CCCCNC(C)=S)NC(=O)CNC(=O)[C@H](CO)NC(=O)[C@H](CCCNC(=N)N)NC(=O)[C@@H](NC(=O)[C@H](CCCCN)NC(=O)[C@@H]1CCCN1C(=O)[C@H](CC(C)C)NC(=O)[C@H](CCCNC(=N)N)NC(=O)[C@@H](N)CCCCN)[C@@H](C)O)C(C)C)[C@@H](C)CC)C(=O)O [Peptide 3a] (H-KRLPKTRSG[Lys(Thioacetyl)]VMRRLLRKII-OH) | about 5 fold | no detectable formation | — | 
2 | CC[C@H](C)[C@H](NC(=O)[C@@H](NC(=O)[C@H](CCCCNC(C)=S)NC(=O)[C@H](CC(=O)O)NC(=O)[C@H](CO)NC(=O)[C@@H]1CCCN1C(=O)[C@@H](N)CCSC)[C@@H](C)O)C(=O)NCC(=O)NCC(=O)O [Peptide 2] (H-MPSD[Lys(Thioacetyl)]TIGG-OH) |  | no detectable formation | —^d | about 10 fold
